#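 The compound was tested at five concentrations on cells cultured in 96-well plates, with a 48-hour exposure period. At the GI50, growth is halved. The concentration for full growth arrest is given as TGI.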
# Assays:
# Experiment in all cases: NCI-60 cell line screen, 48 h
# CAKI-1 renal = tested on: CAKI-1 renal
# 786-0 renal = tested on: 786-0 renal
# COLO 205 colon = tested on: COLO 205 colon
# HL-60(TB) leukemia = tested on: HL-60(TB) leukemia
# BT-549 breast = tested on: BT-549 breast
# OVCAR-8 ovarian = tested on: OVCAR-8 ovarian
# PC-3 prostate = tested on: PC-3 prostate
# NCI-H522 lung = tested on: NCI-H522 lung
# KM12 colon = tested on: KM12 colon
# A549 NSCLC = tested on: A549 NSCLC
# SW-620 colon = tested on: SW-620 colon
# SK-OV-3 ovarian = tested on: SK-OV-3 ovarian
# HCT-15 colon = tested on: HCT-15 colon
# MDA-MB-231 breast = tested on: MDA-MB-231 breast
# M14 melanoma = tested on: M14 melanoma
# SF-539 CNS = tested on: SF-539 CNS
# HCT-116 colon = tested on: HCT-116 colon
# OVCAR-5 ovarian = tested on: OVCAR-5 ovarian
# NCI-H460 lung = tested on: NCI-H460 lung
# DU-145 prostate = tested on: DU-145 prostate
# HS 578T breast = tested on: HS 578T breast
# A498 renal = tested on: A498 renal
# EKVX NSCLC = tested on: EKVX NSCLC
# HCC-2998 colon = tested on: HCC-2998 colon
# SK-MEL-2 melanoma = tested on: SK-MEL-2 melanoma
# NCI/ADR-RES ovarian = tested on: NCI/ADR-RES ovarian
# ACHN renal = tested on: ACHN renal
# RXF 393 renal = tested on: RXF 393 renal
# RPMI-8226 leukemia = tested on: RPMI-8226 leukemia
# MDA-MB-435 = tested on: MDA-MB-435
# SN12C renal = tested on: SN12C renal
# CCRF-CEM leukemia = tested on: CCRF-CEM leukemia
# K-562 leukemia = tested on: K-562 leukemia
# SF-268 CNS = tested on: SF-268 CNS
# MCF7 breast = tested on: MCF7 breast
# SNB-75 CNS = tested on: SNB-75 CNS
# NCI-H226 lung = tested on: NCI-H226 lung
# UACC-62 melanoma = tested on: UACC-62 melanoma
# SK-MEL-28 melanoma = tested on: SK-MEL-28 melanoma
# NCI-H23 lung = tested on: NCI-H23 lung
# SNB-19 CNS = tested on: SNB-19 CNS
# LOX IMVI melanoma = tested on: LOX IMVI melanoma
# OVCAR-4 ovarian = tested on: OVCAR-4 ovarian
# T-47D breast = tested on: T-47D breast
# OVCAR-3 ovarian = tested on: OVCAR-3 ovarian
# IGROV1 ovarian = tested on: IGROV1 ovarian
# SF-295 CNS = tested on: SF-295 CNS
# HT29 colon = tested on: HT29 colon
# HOP-92 NSCLC = tested on: HOP-92 NSCLC
# HOP-62 NSCLC = tested on: HOP-62 NSCLC
# UACC-257 melanoma = tested on: UACC-257 melanoma
# MALME-3M melanoma = tested on: MALME-3M melanoma
# UO-31 renal = tested on: UO-31 renal
# TK-10 renal = tested on: TK-10 renal
# U251 CNS = tested on: U251 CNS
# SK-MEL-5 melanoma = tested on: SK-MEL-5 melanoma
# MOLT-4 leukemia = tested on: MOLT-4 leukemia
# SR leukemia = tested on: SR leukemia
compound,measurement,setting,value
CCO/C=N/C1=C(C#N)C(c2ccc(Cl)cc2)c2sc3c(CC)cccc3c2O1 (stereo unspecified),GI50,CAKI-1 renal,0.703 µM
same,TGI,CAKI-1 renal,18 µM
same,GI50,786-0 renal,2.23 µM
same,TGI,786-0 renal,14 µM
same,GI50,COLO 205 colon,3.36 µM
same,TGI,COLO 205 colon,11.1 µM
same,GI50,HL-60(TB) leukemia,1.34 µM
same,TGI,HL-60(TB) leukemia,11.7 µM
same,GI50,BT-549 breast,2.64 µM
same,TGI,BT-549 breast,16.5 µM
same,GI50,OVCAR-8 ovarian,2.77 µM
same,TGI,OVCAR-8 ovarian,15.1 µM
same,GI50,PC-3 prostate,0.788 µM
same,TGI,PC-3 prostate,11.4 µM
same,GI50,NCI-H522 lung,0.433 µM
same,TGI,NCI-H522 lung,4.57 µM
same,GI50,KM12 colon,0.876 µM
same,TGI,KM12 colon,12.5 µM
same,GI50,A549 NSCLC,1.25 µM
same,TGI,A549 NSCLC,17.2 µM
same,GI50,SW-620 colon,0.71 µM
same,TGI,SW-620 colon,16.9 µM
same,GI50,SK-OV-3 ovarian,5.26 µM
same,TGI,SK-OV-3 ovarian,21 µM
same,GI50,HCT-15 colon,0.617 µM
same,TGI,HCT-15 colon,10.6 µM
same,GI50,MDA-MB-231 breast,3.96 µM
same,TGI,MDA-MB-231 breast,16.9 µM
same,GI50,M14 melanoma,1.21 µM
same,TGI,M14 melanoma,11.7 µM
same,GI50,SF-539 CNS,1.43 µM
same,TGI,SF-539 CNS,3.6 µM
same,GI50,HCT-116 colon,0.801 µM
same,TGI,HCT-116 colon,12.5 µM
same,GI50,OVCAR-5 ovarian,3.24 µM
same,TGI,OVCAR-5 ovarian,14.4 µM
same,GI50,NCI-H460 lung,1.74 µM
same,TGI,NCI-H460 lung,14.2 µM
same,GI50,DU-145 prostate,2.49 µM
same,TGI,DU-145 prostate,12.4 µM
same,GI50,HS 578T breast,1.85 µM
same,TGI,HS 578T breast,12.6 µM
same,GI50,A498 renal,0.416 µM
same,TGI,A498 renal,10.7 µM
same,GI50,EKVX NSCLC,2.11 µM
same,TGI,EKVX NSCLC,14.8 µM
same,GI50,HCC-2998 colon,1.65 µM
same,TGI,HCC-2998 colon,4.95 µM
same,GI50,SK-MEL-2 melanoma,1.65 µM
same,TGI,SK-MEL-2 melanoma,18.3 µM
same,GI50,NCI/ADR-RES ovarian,0.475 µM
same,TGI,NCI/ADR-RES ovarian,3.14 µM
same,GI50,ACHN renal,1.21 µM
same,TGI,ACHN renal,15.4 µM
same,GI50,RXF 393 renal,1.41 µM
same,TGI,RXF 393 renal,5.57 µM
same,GI50,RPMI-8226 leukemia,2.42 µM
same,TGI,RPMI-8226 leukemia,14.4 µM
same,GI50,MDA-MB-435,0.307 µM
same,TGI,MDA-MB-435,0.878 µM
same,GI50,SN12C renal,3.03 µM
same,TGI,SN12C renal,14.5 µM
same,GI50,CCRF-CEM leukemia,1.66 µM
same,TGI,CCRF-CEM leukemia,24.9 µM
same,GI50,K-562 leukemia,0.553 µM
same,TGI,K-562 leukemia,20.6 µM
same,GI50,SF-268 CNS,4.99 µM
same,TGI,SF-268 CNS,21.1 µM
same,GI50,MCF7 breast,0.475 µM
same,TGI,MCF7 breast,10.7 µM
same,GI50,SNB-75 CNS,0.206 µM
same,TGI,SNB-75 CNS,2.01 µM
same,GI50,NCI-H226 lung,5.94 µM
same,TGI,NCI-H226 lung,25.3 µM
same,GI50,UACC-62 melanoma,0.596 µM
same,TGI,UACC-62 melanoma,17.4 µM
same,GI50,SK-MEL-28 melanoma,4.04 µM
same,TGI,SK-MEL-28 melanoma,20.4 µM
same,GI50,NCI-H23 lung,2.56 µM
same,TGI,NCI-H23 lung,13.1 µM
same,GI50,SNB-19 CNS,1.9 µM
same,TGI,SNB-19 CNS,13.9 µM
same,GI50,LOX IMVI melanoma,1.45 µM
same,TGI,LOX IMVI melanoma,14.4 µM
same,GI50,OVCAR-4 ovarian,4.79 µM
same,TGI,OVCAR-4 ovarian,19.6 µM
same,GI50,T-47D breast,2.51 µM
same,TGI,T-47D breast,15.5 µM
same,GI50,OVCAR-3 ovarian,0.813 µM
same,TGI,OVCAR-3 ovarian,13.2 µM
same,GI50,IGROV1 ovarian,0.702 µM
same,TGI,IGROV1 ovarian,14.7 µM
same,GI50,SF-295 CNS,0.331 µM
same,TGI,SF-295 CNS,1.27 µM
same,GI50,HT29 colon,2.39 µM
same,TGI,HT29 colon,10.1 µM
same,GI50,HOP-92 NSCLC,1.53 µM
same,TGI,HOP-92 NSCLC,17.8 µM
same,GI50,HOP-62 NSCLC,4.78 µM
same,TGI,HOP-62 NSCLC,23.6 µM
same,GI50,UACC-257 melanoma,11.1 µM
same,TGI,UACC-257 melanoma,26.1 µM
same,GI50,MALME-3M melanoma,10.1 µM
same,TGI,MALME-3M melanoma,22.6 µM
same,GI50,UO-31 renal,2.2 µM
same,TGI,UO-31 renal,16 µM
same,GI50,TK-10 renal,7.79 µM
same,TGI,TK-10 renal,20.6 µM
same,GI50,U251 CNS,2.38 µM
same,TGI,U251 CNS,13.5 µM
same,GI50,SK-MEL-5 melanoma,4.19 µM
same,TGI,SK-MEL-5 melanoma,16.4 µM
same,GI50,MOLT-4 leukemia,3.02 µM
same,TGI,MOLT-4 leukemia,17 µM
same,GI50,SR leukemia,0.651 µM
same,TGI,SR leukemia,18.4 µM
